Results from US20040029906A1, “Inhibitors of dna polymerase sigma” (priority 2003, published 2004).
“Also recorded” adds a separate entry of the source. Like-named read-outs stand apart in the source and are kept apart here.

Assays:
[1] = target: human pol sigma (pol sigma-1) (Homo sapiens, UniProt Q5XG87); assay: inhibition of human pol sigma; assay type: biochemical
rat polymerase β = rat polymerase β (Rattus norvegicus, UniProt P06766); assay type: biochemical
Experimental: To a 50 μL of 62.5 mM 2-amino-2-methyl-1,3-propanediol buffer, pH 8.6, containing 10 mM MgCl2, 1 mM DTT, 100 μg/mL BSA, 6.25 μM dNTPs including 0.04 Ci/mmol [^3H]dTTP, and 0.25 mg/mL activated calf thymus DNA was added 6 μL of a solution containing each test compound and 4 μL of recombinant rat liver DNA polymerase β preparation (6.9 units, 4.8×10^4 units/mg). After incubation at 37° C. for 60 min, the radiolabeled DNA product was collected on DEAE-cellulose paper (DE-81), dried, and rinsed successively with 0.4 M K2HPO4, pH 9.4, and 95% ethanol for radioactivity determination.

[2] = target: T1, yeast polymerase σ (Trf4, pol sigma-I) (Saccharomyces cerevisiae, UniProt P53632); assay: in vitro primer extension assay (5'-32P dT16 primer / poly dA template) for polymerase σ inhibition; assay type: biochemical, yeast (S. cerevisiae); conditions: for inhibition of polymerase σ in primer extension assay (FIG. 3), in words: 10 μM test compound, 5 min, dTTP, Mg2+; for concentration level of yeast pol sigma inhibition, in words: yeast pol sigma in vitro
T1 construct: His6 (peptide tag containing six histidines); made in house; host or cells: E. coli
T1 sequence (P53632 1-584): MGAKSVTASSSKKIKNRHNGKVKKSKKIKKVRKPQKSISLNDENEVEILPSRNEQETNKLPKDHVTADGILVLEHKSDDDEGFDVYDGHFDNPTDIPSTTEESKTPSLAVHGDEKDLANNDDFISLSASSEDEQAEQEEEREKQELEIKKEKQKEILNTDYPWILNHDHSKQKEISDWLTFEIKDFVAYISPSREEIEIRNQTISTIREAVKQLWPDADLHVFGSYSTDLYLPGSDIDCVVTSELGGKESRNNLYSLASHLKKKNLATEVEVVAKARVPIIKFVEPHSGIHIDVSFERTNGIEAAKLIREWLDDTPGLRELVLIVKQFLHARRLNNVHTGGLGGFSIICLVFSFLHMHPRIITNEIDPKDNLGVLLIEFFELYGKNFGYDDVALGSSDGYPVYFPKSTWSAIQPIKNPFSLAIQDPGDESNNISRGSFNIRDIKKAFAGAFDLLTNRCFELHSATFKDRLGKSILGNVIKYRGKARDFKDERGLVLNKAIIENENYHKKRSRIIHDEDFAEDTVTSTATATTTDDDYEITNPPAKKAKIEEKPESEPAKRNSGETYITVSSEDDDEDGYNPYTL
Experimental: Due to the predicted structural similarity between pol sigma and pol β (Aravind and Koonin, 1999, Nucleic Acids Research 27: 1609-1618) several known β polmerase inhibitors were tested to determine if they would inhibit pol sigma in vitro. […] The template primer was incubated in the presence of dTTP, Mg^2+ and 10 μM test compound for 5 min. […] Lane 1 of FIG. 3 is a control with only the DMSO solvent added to the poly dA/ oligo dT assay, the remaining lanes represent reactions run in the presence of one of the β polmerase inhibitors.
The assay system that has been employed to date employs a dT16 primer annealed to a poly dA template (average length 282 nucleotides). Primer elongation as a consequence of the addition of T residues (in a distributive fashion) has been monitored by polyacrylamide gel electrophoresis. For purposes of screening for inhibitors a variant of the DNA polymerase β this system will be used as follows: […]

[3] = P388D1 cell viability, camptothecin and ursolic acid alone or together (Trypan Blue, hemacytometer); conditions: mouse, % viability, 6 hr incubation, 1 μM camptothecin, 0.5 μM ursolic acid
From the text: (§1) Viable cells were scored by the use of a hemacytometer plate after straining with Trypan Blue.

P388D1 cells = assay: as above; conditions: 6 hr incubation, 1 μM camptothecin, 0.5 μM ursolic acid
From the text: as §1

[4] = system: TRF4-deficient yeast (trf4 single mutants); assay: yeast spot growth assay, sensitivity to camptothecin; assay type: cell-based, S. cerevisiae (yeast)
Experimental: Spots represent serial 10-fold dilutions of saturated yeast cultures spotted onto Petri plates and incubated at 30° C. for 2 days in the presence of 10 ug/ml of camptothcin (FIG. 1A) or absence of drug (FIG. 1B).

Chain of human pol sigma (pol sigma-1) (Q5XG87 whole entry): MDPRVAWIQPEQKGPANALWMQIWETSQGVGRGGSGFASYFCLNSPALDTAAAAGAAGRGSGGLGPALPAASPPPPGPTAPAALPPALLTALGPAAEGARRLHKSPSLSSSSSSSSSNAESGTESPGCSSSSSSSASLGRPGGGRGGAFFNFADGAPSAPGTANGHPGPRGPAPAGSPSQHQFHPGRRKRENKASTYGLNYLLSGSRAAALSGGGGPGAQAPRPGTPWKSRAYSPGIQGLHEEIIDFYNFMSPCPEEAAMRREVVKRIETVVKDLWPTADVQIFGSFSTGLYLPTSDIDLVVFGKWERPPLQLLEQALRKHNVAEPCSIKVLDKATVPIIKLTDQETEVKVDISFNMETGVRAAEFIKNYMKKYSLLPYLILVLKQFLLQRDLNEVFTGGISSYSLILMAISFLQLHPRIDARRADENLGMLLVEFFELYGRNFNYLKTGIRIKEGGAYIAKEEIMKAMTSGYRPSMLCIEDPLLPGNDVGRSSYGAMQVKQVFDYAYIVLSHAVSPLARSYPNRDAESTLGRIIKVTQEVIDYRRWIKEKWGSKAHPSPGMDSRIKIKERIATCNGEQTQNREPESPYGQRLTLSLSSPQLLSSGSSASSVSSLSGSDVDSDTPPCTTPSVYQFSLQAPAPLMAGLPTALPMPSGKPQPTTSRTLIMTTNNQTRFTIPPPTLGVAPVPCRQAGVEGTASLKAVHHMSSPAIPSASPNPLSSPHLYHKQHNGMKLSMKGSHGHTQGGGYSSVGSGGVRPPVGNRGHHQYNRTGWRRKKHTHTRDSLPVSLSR

In the case of `C[C@H]1[C@H](C)CC[C@]2(C(=O)O)CC[C@]3(C)C(=CC[C@@H]4[C@@]5(C)CC[C@H](O)C(C)(C)[C@@H]5CC[C@]43C)[C@H]12` [ursolic acid], the “inhibitory activity against human pol sigma, in words” value [1] is reported as “inhibitory activity”, the “rank order of potencies for rat polymerase β” value (from here on “rank order of potencies”) (rat polymerase β) is reported as “ursolic acid >betulinic acid >> 3β-hydroxy-7,24-euphandien-26-oic acid” and the “inhibition of polymerase σ in primer extension assay (FIG. 3), in words” value (from here on “inhibition of polymerase σ”) [2] is reported as “showing activity”. The “concentration level of yeast pol sigma inhibition, in words” value [2] was “micromolar concentrations”, the “concentration level of yeast pol sigma inhibition, in words” value ([2]; listed as Ursolic acid) was “inhibits yeast polymerase σ” and the viability at 6 h ([3]; Experiment 1, P388D1 cells) was 88%. For the same compound, the viability at 6 h ([3]; Experiment 2, P388D1 cells) was 77% and the “toxicity to P388D1 cells, in words” value (P388D1 cells) was “minimal toxicity”.
In the case of `C=C(C)[C@@H]1CC[C@]2(C(=O)O)CC[C@]3(C)[C@H](CC[C@@H]4[C@@]5(C)CC[C@H](O)C(C)(C)[C@@H]5CC[C@]43C)[C@@H]12` [betulinic acid], the “rank order of potencies” value (rat polymerase β) is reported as “ursolic acid >betulinic acid >> 3β-hydroxy-7,24-euphandien-26-oic acid”, the “inhibition of polymerase σ” value [2] is reported as “showing activity” and the “concentration level of yeast pol sigma inhibition, in words” value [2] is reported as “micromolar concentrations”.
In the case of `CC[C@@]1(O)C(=O)OCc2c1cc1n(c2=O)Cc2cc3ccccc3nc2-1` [camptothecin], the “sensitivity of pol sigma-deficient yeast relative to wild-type strains, in words” value ([4]; 10 ug/ml, 30° C., 2 days, trf4::HIS3 and mcd1-1) is reported as “hypersensitive”, the “sensitivity of yeast cells lacking TRF4 to the agent relative to wild type” value ([4]; yeast cells lacking TRF4 (FIG. 1)) is reported as 10,000 fold and the viability at 6 h ([3]; P388D1 cells (suspension culture), Experiment 1, P388D1 cells) is reported as 84%. The viability at 6 h ([3]; P388D1 cells (suspension culture), Experiment 2, P388D1 cells) was 77% and the “toxicity to P388D1 cells, in words” value (P388D1 cells) was “minimal toxicity”.
For `C/C(=C\CC[C@@H](C)[C@@H]1CC[C@]2(C)C3=CC[C@H]4C(C)(C)[C@@H](O)CC[C@]4(C)[C@H]3CC[C@@]12C)C(=O)O` [(24E)-3beta-hydroxy-7,24-euphandien-26-oic acid], the “inhibitory activity against human pol sigma, in words” value [1] was “inhibitory activity; also recorded: active, albeit only at micromolar concentrations; also recorded: also work to inhibit human pol sigma-1”, the “rank order of potencies” value (rat polymerase β; rat polymerase β) was “ursolic acid >betulinic acid >> 3β-hydroxy-7,24-euphandien-26-oic acid” and the IC50 [2] was ~500 nM. The “pol sigma polymerase activity observed in presence of compound” value ([2]; 10 uM concentration) was “no activity whatsoever”, the “inhibition of polymerase σ” value [2] was “most potent of the species tested” and the “concentration level of yeast pol sigma inhibition, in words” value [2] was “nanomolar level inhibitor”.
